Measured values taken from ChEMBL document CHEMBL3352097, “Small molecule inhibitors targeting activator protein 1 (AP-1)” (J Med Chem, 2014).

Legend:
[1] = target: T1, Retinoic acid receptor alpha (Homo sapiens, UniProt P10276); experiment: Activity at RARalpha (unknown origin)
T1 sequence (P10276 whole entry): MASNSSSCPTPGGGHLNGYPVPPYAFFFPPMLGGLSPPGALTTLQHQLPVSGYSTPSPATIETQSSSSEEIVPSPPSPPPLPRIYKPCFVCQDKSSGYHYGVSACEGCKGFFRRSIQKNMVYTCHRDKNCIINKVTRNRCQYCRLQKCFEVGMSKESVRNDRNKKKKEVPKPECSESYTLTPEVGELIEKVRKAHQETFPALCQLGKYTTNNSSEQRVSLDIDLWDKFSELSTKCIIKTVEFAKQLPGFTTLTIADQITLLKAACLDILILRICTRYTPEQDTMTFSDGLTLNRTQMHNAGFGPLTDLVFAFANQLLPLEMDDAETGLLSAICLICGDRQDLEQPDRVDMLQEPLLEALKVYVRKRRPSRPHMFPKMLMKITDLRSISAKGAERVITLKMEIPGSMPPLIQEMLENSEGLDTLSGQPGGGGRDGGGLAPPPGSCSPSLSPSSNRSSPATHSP

[2] = target: T2, Retinoic acid receptor beta (Homo sapiens, UniProt P10826); experiment: Activity at RARbeta (unknown origin)
T2 sequence (P10826 whole entry): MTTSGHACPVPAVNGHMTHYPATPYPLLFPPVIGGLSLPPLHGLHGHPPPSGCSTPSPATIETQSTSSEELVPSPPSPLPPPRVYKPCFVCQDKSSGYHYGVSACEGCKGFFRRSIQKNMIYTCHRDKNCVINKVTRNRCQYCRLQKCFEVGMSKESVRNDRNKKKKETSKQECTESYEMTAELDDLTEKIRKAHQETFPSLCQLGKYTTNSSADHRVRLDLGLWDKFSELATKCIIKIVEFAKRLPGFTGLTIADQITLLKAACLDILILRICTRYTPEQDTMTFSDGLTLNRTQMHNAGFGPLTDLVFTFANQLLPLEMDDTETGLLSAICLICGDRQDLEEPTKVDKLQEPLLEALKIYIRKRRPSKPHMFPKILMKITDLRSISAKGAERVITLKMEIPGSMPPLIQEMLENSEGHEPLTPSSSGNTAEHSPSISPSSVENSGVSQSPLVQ

[3] = target: T3, Retinoic acid receptor gamma (Homo sapiens, UniProt P13631); experiment: Activity at RARgamma (unknown origin)
T3 sequence (P13631 whole entry): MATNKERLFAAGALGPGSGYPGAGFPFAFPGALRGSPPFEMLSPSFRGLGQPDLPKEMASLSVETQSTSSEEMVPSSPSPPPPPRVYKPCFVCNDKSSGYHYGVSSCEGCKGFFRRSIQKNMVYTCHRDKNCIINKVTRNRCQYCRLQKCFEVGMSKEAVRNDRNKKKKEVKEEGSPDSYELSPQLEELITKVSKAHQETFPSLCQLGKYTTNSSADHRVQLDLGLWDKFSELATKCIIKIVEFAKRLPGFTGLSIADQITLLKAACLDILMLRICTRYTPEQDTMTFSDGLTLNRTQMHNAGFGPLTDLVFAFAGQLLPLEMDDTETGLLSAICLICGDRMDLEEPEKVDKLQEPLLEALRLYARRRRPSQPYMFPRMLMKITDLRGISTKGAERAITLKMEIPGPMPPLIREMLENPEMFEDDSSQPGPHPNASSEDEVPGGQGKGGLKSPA

[4] = target: T4, Retinoic acid receptor RXR-alpha (Homo sapiens, UniProt P19793); experiment: Activity at RXRalpha (unknown origin)
T4 sequence (P19793 whole entry): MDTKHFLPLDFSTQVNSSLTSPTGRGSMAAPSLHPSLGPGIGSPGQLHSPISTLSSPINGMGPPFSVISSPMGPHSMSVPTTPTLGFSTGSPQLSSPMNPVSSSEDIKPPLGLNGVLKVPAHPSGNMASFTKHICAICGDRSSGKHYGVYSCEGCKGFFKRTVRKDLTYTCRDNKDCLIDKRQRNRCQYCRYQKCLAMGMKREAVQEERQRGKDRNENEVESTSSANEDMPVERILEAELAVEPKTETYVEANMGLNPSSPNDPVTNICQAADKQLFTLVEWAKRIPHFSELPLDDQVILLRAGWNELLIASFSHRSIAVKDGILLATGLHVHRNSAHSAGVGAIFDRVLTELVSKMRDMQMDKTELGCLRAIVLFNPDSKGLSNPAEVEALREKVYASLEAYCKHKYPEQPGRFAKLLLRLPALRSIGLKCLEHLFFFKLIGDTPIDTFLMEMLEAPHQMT

[5] = target: Transcription factor Jun (Homo sapiens, UniProt P05412); experiment: Inhibition of AP-1-mediated transcriptional activation in HEK293 cells by luciferase reporter gene assay; assay type: cell-based
Sequence of Transcription factor Jun (P05412 whole entry): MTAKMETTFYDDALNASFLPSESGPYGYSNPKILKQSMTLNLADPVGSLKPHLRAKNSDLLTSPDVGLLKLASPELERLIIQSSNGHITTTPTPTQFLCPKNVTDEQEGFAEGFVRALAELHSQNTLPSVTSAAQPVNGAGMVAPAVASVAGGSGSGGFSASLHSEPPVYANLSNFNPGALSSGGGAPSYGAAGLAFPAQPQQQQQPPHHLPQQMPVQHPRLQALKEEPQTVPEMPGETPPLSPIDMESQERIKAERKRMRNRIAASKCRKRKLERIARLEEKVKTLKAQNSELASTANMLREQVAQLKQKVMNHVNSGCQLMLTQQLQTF

[6] = system: Rattus norvegicus; experiment: Antiinflammatory activity in carrageenan injection-induced rat inflammation model assessed as inhibition of rat paw edema; assay type: functional

Row | EC50 [1] [nM] | EC50 [2] [nM] | EC50 [3] [nM] | EC50 [4] [nM] | IC50 [5] [nM] | Compound | inhibition (INH) [6] [%]
1 | > 1000 | > 1000 | > 1000 | > 1000 |  | CC1=C(/C=C/C(=C/C=C/C(C)=C/C(=O)O)c2ccc(C)cc2)C(C)(C)CCC1 | 
2 |  |  |  |  | 500 | CNc1nc(-c2ccccc2)c(-c2nc3ccccc3c(=O)n2-c2ccccc2OC)s1 | 56
